According to article PMC4147344, “Discovery of novel non-ATP competitive FGFR1 inhibitors and evaluation of their anti-tumor activity in non-small cell lung cancer in vitro and in vivo” (Oncotarget, 2014):
Several values for one entry are separate records, joined by “and”; a condition that tells them apart may be missing. Equal values may be shown once. Read-outs that look alike come from different tables or passages of the source.

How the values were obtained:
H460 cells [1] = assay: Caspase activation (cleaved caspase-3 and -9), western blot; format: cell-based, human; settings: 10 μM, 12 h
Procedure: (§1) Figure 3 […]25 inhibited proliferation and induced apoptosis in H460 cells (A) H460 cells were pretreated with compounds at indicated concentrations, followed by the treatment with bFGF (30 ng/mL) for 10 min. The phosphorylation level of FGFR1 in cell lysates was measured by western blot analysis. The column figures show the normalized optical density as a percentage of total FGFR1 control. (B) H460 cells were treated with compounds at concentrations (0.74, 2.22, 6.67, 20, and 60 μM) for 72 h. The MTT assay gives the respective IC50 values of compounds. (C) The time-course cell survival profile of H460 cells treated by compounds at 20 μM was detected through an MTT assay. (D) Effects of […]25 on caspase activation in H460 cells. […] The levels of cleaved caspase-3 and cleaved caspase-9 were determined by western blot analysis.

[2] = tested on: H460 xenograft tumor tissue; assay: Protein levels in xenograft tumor tissue (western blot, immunohistochemistry); format: in vivo, BALB/cA nude mice; settings: 3 mg/kg/d i.p.; for Phosphorylated FGFR1 in tumor tissue (western blot): compared to untreated group; for Expression of Bcl-2, Cyclin D1 and cox-2 in tumor tissue (immunohistochemistry): compared with model group
Procedure: (§2) Figure 4 Anti-tumor effects of compounds […] H460 xenograft models Xenografts were established in nude mice. […] (A) Tumor volume (mm^3) and (B) Tumor weight (g) were recorded (* P <0.05, ** P < 0.01). (C) Body weight of each mice was recorded. (D) pFGFR1 expressions in tumor tissues were detected by Western Blot with FGFR1 as internal control. (E) The levels of p-ERK, p-AKT, Bcl-2, CyclinD1, and COX-2 in tumor tissues were detected by immunohistochemical staining. Representative pictures are shown.

H460 cells [3] = assay: MTT anti-proliferation assay; format: cell-based, human; settings: for Time-course cell survival (MTT): 20 μM, 0-72 h; for IC50: Homo sapiens, NCI-H460, 72 h, read-out: IC50 against H460 cells (MTT)
Procedure: as §1

H460 cells [4] = assay: Apoptosis analysis, Annexin V/PI flow cytometry; format: cell-based, human; settings: 2.5, 5, 10 μM
[5] = tested on: FGFR1-overexpressing HEK293 cells; assay: bFGF-induced phosphorylation of FGFR1 and ERK, western blot; format: cell-based; settings: bFGF 30 ng/mL for 10 min, pretreatment with compound
Procedure: (C and D) FGFR1 over-expressing 293 cells were pretreated with compounds at indicated concentrations or vehicle (0.1% DMSO), respectively. Then, cells were stimulated with bFGF (30 ng/mL) for 10 min, and the phosphorylation level of FGFR1 and ERK in cell lysates was measured by western blot analysis. The figures were representative of 3 separate experiments (C). […] Statistical significance relative to bFGF alone group was expressed, * P <0.05, ** P < 0.01.
Cells or homogenated tumor tissues were lysated. The protein concentrations in all samples were determined by using the Bradford protein assay kit (Bio-Rad, Hercules, CA). The supernatant was run on 10% SDS-PAGE gel followed by being transferred to a PVDF membrane. After being blocked with 5% non-fat dry milk in TBST for 1.5h, the membrane was incubated with the primary antibody overnight followed by incubation with goat anti-rabbit IgG, HRP-linked antibody for 1 h. The blots were detected with an ECL detection kit (Bio-Rad, Hercules, CA) according to the manufacturer's procedure. The results were analyzed by Quantity One software to determine the relative band density ratio.

H460 xenograft = assay: In vivo anti-tumor study, H460 xenograft; set-up: species or system BALB/cA nude mice; settings: for Tumor weight inhibition rate: 3 mg/kg/d i.p. once daily for 28 days; for Tumor volume: 3 mg/kg/d i.p., 28th day, compared to model group
Procedure: as §2

H460 cells [6] = assay: bFGF-induced phosphorylation of FGFR1, western blot; format: cell-based, human; settings: bFGF 30 ng/mL for 10 min, pretreatment with compound
Procedure: as §1

[7] = Body weight of mice in H460 xenograft study; format: in vivo, BALB/cA nude mice; settings: for Change of body weight during treatment: 3 mg/kg/d i.p. for 28 days; for Body weight: 3 mg/kg/d i.p., in g (unit assumed)
Procedure: as §2

c-MET = c-MET (Homo sapiens, UniProt P08581); assay: Cell-free kinase activity assay (Caliper Mobility Shift Assay); format: biochemical; settings: ATP at Km; mean of 3-5 independent tests
Sequence of c-MET (P08581 25-1390): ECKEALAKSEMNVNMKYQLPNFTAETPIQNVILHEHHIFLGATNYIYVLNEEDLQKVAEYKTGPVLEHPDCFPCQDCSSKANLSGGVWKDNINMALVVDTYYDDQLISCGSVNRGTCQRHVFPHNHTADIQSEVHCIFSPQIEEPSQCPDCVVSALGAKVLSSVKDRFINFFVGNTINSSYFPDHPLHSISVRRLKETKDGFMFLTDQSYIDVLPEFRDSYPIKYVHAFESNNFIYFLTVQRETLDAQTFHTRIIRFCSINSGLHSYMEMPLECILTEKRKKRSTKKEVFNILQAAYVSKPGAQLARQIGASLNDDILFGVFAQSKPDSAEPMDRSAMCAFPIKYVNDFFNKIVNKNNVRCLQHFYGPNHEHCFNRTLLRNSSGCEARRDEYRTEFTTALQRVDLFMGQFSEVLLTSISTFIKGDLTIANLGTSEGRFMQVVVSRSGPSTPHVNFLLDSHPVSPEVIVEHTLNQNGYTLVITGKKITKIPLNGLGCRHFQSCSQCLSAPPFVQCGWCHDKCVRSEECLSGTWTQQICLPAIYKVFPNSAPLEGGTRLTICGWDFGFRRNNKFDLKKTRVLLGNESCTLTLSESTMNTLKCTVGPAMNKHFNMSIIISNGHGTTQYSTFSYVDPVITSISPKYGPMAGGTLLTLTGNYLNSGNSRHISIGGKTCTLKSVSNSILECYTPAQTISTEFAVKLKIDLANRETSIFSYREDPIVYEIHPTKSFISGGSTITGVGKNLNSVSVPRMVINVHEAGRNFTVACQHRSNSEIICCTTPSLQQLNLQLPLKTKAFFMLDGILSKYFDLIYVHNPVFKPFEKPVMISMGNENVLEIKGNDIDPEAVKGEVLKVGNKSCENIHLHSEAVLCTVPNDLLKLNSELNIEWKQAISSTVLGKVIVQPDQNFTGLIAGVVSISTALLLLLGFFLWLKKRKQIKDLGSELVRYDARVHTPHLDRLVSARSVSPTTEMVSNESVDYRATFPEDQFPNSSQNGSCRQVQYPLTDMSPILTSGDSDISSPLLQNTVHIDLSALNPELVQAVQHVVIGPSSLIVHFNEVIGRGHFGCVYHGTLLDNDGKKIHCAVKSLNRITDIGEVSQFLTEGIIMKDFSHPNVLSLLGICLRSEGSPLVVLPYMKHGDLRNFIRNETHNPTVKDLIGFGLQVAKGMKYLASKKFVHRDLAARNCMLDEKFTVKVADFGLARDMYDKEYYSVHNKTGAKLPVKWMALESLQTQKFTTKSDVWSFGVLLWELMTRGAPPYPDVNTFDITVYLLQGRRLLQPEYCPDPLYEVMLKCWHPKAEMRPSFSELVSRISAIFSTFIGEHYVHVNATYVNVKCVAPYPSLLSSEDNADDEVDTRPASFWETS
Procedure: (§3) Compounds were performed with caliper mobility shift assay for RTK inhibition, and the IC50 values were calculated using conversion rates. The data were shown as a mean of 3-5 independent tests.
(§4) The activity of tyrosine kinase including FGFR1, FGFR2, FGFR3, EGFR, VEGFR-2, c-MET, and PDGFR-β were tested by Caliper Mobility Shift Assay on Caliper EZ reader (Caliper Life Sciences, MA) according to the instructions provided. […] For each kinase assay, the ATP concentration used in the assay was set at the Km value of the corresponding kinase. […] In the electrophoretic mobility shift assays, product accumulation was expressed as percentage conversion, product peak height/(product peak height + substrate peak height).

PDGFRβ = biological target: T1, PDGFRβ (Homo sapiens, UniProt P09619); assay: as above; format: biochemical; settings: ATP at Km; mean of 3-5 independent tests
T1 construct: purchased Carna Biosciences Inc. (Kobe, Japan)
T1 sequence (P09619 33-1106): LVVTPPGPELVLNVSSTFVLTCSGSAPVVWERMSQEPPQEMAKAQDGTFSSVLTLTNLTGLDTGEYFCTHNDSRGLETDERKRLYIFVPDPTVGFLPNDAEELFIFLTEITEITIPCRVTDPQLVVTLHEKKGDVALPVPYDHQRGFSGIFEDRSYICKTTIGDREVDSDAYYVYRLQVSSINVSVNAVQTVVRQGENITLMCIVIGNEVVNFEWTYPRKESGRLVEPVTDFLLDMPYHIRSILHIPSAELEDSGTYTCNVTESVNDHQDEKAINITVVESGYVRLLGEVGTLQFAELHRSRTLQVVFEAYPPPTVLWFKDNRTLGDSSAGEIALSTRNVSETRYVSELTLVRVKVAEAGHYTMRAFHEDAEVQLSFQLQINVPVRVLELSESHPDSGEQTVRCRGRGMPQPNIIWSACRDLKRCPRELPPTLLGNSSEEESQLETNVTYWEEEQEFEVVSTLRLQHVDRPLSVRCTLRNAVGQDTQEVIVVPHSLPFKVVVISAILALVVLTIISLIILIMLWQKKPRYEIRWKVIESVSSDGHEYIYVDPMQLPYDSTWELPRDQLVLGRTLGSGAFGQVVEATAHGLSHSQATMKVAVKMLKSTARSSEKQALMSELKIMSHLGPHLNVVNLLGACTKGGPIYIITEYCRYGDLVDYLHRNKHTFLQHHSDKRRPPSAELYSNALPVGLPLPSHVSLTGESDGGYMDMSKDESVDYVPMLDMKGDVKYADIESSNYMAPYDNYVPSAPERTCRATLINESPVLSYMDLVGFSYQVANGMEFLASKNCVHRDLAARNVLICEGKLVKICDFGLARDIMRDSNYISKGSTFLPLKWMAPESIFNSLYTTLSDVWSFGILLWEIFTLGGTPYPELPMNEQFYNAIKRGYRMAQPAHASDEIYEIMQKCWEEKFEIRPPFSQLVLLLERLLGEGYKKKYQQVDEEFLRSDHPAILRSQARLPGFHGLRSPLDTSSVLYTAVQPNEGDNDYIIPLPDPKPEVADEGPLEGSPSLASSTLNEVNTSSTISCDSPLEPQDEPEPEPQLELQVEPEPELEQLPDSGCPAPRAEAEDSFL
Procedure: as §3, §4

VEGFR2 = biological target: T2, VEGFR2 (Homo sapiens, UniProt P35968); assay: as above; format: biochemical; settings: ATP at Km; mean of 3-5 independent tests
T2 construct: purchased Carna Biosciences Inc. (Kobe, Japan)
Procedure: as §3, §4

FGFR1 [8] = biological target: T3, FGFR1 (Homo sapiens, UniProt P11362); assay: as above; format: biochemical; settings: ATP at Km; mean of 3-5 independent tests
T3 construct: purchased Carna Biosciences Inc. (Kobe, Japan)
T3 sequence (P11362 22-822): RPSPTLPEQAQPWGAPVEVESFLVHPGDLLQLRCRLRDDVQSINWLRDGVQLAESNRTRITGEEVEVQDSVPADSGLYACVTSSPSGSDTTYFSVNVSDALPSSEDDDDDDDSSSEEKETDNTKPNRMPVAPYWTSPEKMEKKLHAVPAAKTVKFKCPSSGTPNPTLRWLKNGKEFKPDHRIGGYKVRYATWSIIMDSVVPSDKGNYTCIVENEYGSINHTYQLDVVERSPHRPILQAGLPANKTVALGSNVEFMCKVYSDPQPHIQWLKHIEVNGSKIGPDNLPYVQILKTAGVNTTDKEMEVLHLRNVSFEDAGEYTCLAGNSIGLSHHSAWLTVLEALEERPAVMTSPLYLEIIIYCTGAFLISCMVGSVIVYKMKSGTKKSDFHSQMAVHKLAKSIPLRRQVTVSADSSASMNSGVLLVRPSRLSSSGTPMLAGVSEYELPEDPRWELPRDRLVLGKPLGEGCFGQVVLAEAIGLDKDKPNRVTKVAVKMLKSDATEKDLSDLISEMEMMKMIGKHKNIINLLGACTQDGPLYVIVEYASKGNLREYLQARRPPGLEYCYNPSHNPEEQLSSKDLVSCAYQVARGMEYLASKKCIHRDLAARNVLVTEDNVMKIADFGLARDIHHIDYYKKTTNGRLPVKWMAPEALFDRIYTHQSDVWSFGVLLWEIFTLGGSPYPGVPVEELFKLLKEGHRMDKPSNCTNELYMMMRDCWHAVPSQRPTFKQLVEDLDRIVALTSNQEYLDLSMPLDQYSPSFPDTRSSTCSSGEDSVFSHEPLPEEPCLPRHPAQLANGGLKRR
Procedure: as §3, §4

FGFR2 = biological target: T4, FGFR2 (Homo sapiens, UniProt P21802); assay: as above; format: biochemical
T4 construct: purchased Carna Biosciences Inc. (Kobe, Japan)
T4 sequence (P21802 22-821): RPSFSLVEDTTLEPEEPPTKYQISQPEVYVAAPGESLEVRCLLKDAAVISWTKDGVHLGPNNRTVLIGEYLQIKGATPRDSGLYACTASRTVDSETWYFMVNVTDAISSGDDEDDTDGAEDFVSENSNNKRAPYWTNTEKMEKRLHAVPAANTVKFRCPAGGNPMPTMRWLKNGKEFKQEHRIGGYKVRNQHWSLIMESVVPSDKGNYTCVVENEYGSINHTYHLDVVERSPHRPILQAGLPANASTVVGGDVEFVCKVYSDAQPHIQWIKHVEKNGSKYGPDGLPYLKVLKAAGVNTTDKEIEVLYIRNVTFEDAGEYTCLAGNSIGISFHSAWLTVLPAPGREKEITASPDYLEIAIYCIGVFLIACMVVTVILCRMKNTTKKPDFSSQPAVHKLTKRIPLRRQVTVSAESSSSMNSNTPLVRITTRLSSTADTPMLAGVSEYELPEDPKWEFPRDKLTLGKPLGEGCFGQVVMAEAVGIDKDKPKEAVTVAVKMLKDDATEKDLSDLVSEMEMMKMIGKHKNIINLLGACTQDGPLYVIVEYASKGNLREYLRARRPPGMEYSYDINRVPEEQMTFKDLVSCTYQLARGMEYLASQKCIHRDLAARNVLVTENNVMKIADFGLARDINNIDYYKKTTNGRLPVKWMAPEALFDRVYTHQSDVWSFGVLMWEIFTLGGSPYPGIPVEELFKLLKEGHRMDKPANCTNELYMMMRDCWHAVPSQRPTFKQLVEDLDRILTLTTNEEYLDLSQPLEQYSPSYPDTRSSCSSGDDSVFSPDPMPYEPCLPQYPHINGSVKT
Procedure: as §3, §4

EGFR = biological target: T5, EGFR (Homo sapiens, UniProt P00533); assay: as above; format: biochemical; settings: ATP at Km; mean of 3-5 independent tests
T5 construct: purchased Carna Biosciences Inc. (Kobe, Japan)
Procedure: as §3, §4

FGFR3 = biological target: T6, FGFR3 (Homo sapiens, UniProt P22607); assay: as above; format: biochemical
T6 construct: purchased Carna Biosciences Inc. (Kobe, Japan)
T6 sequence (P22607 23-806): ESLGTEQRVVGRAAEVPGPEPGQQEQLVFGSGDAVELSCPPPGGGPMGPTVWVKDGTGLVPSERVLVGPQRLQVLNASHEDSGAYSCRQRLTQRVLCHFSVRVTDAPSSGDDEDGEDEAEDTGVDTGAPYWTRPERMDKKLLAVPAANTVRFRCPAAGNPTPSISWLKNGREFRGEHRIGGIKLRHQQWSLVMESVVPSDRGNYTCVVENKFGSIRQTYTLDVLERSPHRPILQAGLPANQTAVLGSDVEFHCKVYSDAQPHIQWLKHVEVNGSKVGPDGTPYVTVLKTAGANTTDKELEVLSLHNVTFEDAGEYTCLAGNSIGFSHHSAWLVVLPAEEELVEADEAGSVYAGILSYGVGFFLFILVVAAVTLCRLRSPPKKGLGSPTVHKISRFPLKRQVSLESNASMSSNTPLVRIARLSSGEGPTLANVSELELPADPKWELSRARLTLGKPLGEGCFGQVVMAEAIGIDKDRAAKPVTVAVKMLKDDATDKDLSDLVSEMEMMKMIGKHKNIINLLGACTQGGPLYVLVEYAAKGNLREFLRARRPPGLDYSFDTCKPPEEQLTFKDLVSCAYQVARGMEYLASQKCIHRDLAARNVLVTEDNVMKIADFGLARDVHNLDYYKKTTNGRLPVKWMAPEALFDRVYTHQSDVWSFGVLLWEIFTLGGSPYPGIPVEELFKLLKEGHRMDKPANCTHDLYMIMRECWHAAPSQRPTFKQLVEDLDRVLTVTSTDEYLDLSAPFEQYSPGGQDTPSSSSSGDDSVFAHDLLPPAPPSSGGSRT
Procedure: as §3, §4

FGFR1 [9] = biological target: T3, FGFR1; assay: ATP competitive inhibition assay (caliper mobility shift assay); format: biochemical; settings: ATP 33-4192 μM, substrate constant
Procedure: In the experiments for testing the relationship between the compounds and ATP, the concentration of the substrate was constant, while the concentrations of ATP were set at 4192, 2096, 1048, 524, 262, 131, 66, and33 μM. The global competitive inhibition fit for the compounds was performed based on percent conversion = (Vmax*X)/{km*[([1] + I/Ki)^n] + X}, where X is the ATP concentration, and n is the Hill coefficient.

| IC50 (H460 cells [3]) | IC50 (c-MET) | IC50 (PDGFRβ) | IC50 (VEGFR2) | IC50 (FGFR1 [8]) | IC50 (EGFR) | SMILES | Expression of cleaved caspase 3 and 9 (H460 cells [1]) | Phosphorylated FGFR1 in tumor tissue (western blot) [2] | Expression of Bcl-2, Cyclin D1 and cox-2 in tumor tissue (immunohistochemistry) [2] | Time-course cell survival (MTT) (H460 cells [3]) | Apoptotic cell rate (H460 cells [4]) | Phosphorylation of FGFR1 and ERK [5] | Tumor weight inhibition rate (H460 xenograft) | Tumor volume (H460 xenograft) | Phosphorylation of FGFR1 (H460 cells [6]) | Change of body weight during treatment [7] | Body weight ([7]; Week 1st) | Body weight ([7]; Week 2nd) | Body weight ([7]; Week 3rd) | Body weight ([7]; Week 4th) | further results |
| --- | --- | --- | --- | --- | --- | --- | --- | --- | --- | --- | --- | --- | --- | --- | --- | --- | --- | --- | --- | --- | --- |
| 5 µM |  |  |  |  |  | O=C1/C(=C/c2ccccc2Cl)CNC/C1=C\c1ccccc1Cl [Aea4] | significantly increased | decreased expression of phosphorylated FGFR1 | effectively restrained the expression of Bcl-2, Cyclin D1 and cox-2 | inhibit cell proliferation and increase cell death of H460 time-dependently | induced H460 cell apoptosis in a dose-dependent manner | inhibited their phosphorylation of FGFR1 and ERK in a dose-dependent manner | 55.0% | significant reduction in tumor volume at the 28th day | inhibited this effect in a dose-dependent fashion | no obvious change | 23.37 ± 0.73 | 24.94 ± 0.83 | 25.81 ± 0.85 | 24.94 ± 0.79 |  |
| 5.8 µM | 8.2 µM | 84 µM | 28.6 µM | 8.8 µM and 6.5 µM | 33.3 µM | O=C1/C(=C/c2ccccc2Br)CNC/C1=C\c1ccccc1Br [Aea25] | significantly increased | decreased expression of phosphorylated FGFR1 | effectively restrained the expression of Bcl-2, Cyclin D1 and cox-2 | inhibit cell proliferation and increase cell death of H460 time-dependently | induced H460 cell apoptosis in a dose-dependent manner | inhibited their phosphorylation of FGFR1 and ERK in a dose-dependent manner | 66.5% | significant reduction in tumor volume at the 28th day | inhibited this effect in a dose-dependent fashion | no obvious change | 22.01 ± 0.75 | 24.02 ± 0.53 | 25.26 ± 0.38 | 25.36 ± 0.51 | IC50 (FGFR2): 43.3 µM; IC50 (FGFR3): 43.2 µM; Effect of increased ATP concentration on FGFR1 inhibition (mode of inhibition) (FGFR1 [9]): ATP independent manner |
| 15.6 ± 1.2 µM | > 100 µM | > 100 µM | > 100 µM | 24.5 µM | 89.9 µM | C[C@H](Cc1ccc(O)c(O)c1)[C@@H](C)Cc1ccc(O)c(O)c1 [NDGA, Nordihydroguaiaretic acid, reference compound] |  |  |  |  |  |  |  |  |  |  |  |  |  |  | IC50 (FGFR2; ATP at Km, mean of 3-5 independent tests, read-out: IC50 FGFR2): > 100 µM; IC50 (FGFR3; ATP at Km, mean of 3-5 independent tests, read-out: IC50 FGFR3): 72.4 µM; Effect of increased ATP concentration on FGFR1 inhibition (mode of inhibition) (FGFR1 [9]): did not affect the rate of FGFR1 substrate phosphorylation |
